Columns and labels:
Assay type in all cases: cell-based
[1] = system: HCT15 (cell lines of human colon adenocarcinoma); test: Test on cell proliferation (MTT test), HCT15; details: 72 hours
Experimental: (§1) a. Eight tumoral cell lines are used in this study: L1210 (mouse lymphocytic leukemia), HCT15 and LOVO (cell lines of human colon adenocarcinoma), A549 (human lung carcinoma), A172, U373 et U87 (human glioblastoma). All these lines are obtained from the American Type Culture Collection (ATCC), Rockville, Md. The L1210 cell cultures in suspension are cultured in Dulbecco's modified Eagle's medium (DMEM) (BioWhitaker, Verviers, Belgium) together with 10% of foetal calf serum inactivated by heating, 2 mM of glutamine, 50 μg/ml of penicillin and 50 μg/ml of streptomycin. The HT29 cells are cultured in mono-layer cultures in a McCoy 5a medium (Gibco, Paisley, United Kingdom) together with 10% of foetal calf serum inactivated by heat plus 2 mM of glutamine and 50 μg/ml of gentamycin. The other cells are cultured in an Earle's modified essential medium (EMEM; Gibco, Paisley, United Kingdom) together with 5% foetal calf serum inactivated by heat, 2 mM of glutamine, 50 U/ml of penicillin and 50 μg/ml of streptomycin. All the cell lines are cultured at 37° C. in a humidified atmosphere containing 95% air and 5% CO2.
(§2) Inhibition of the tumor cell line proliferation is determined using an MTT test. 1500 L1210 cells in a culture medium (according to the needs of the cell medium) are seeded in a well of a micro-well plate (tissue culture level: 96 wells, flat bottom) 24 hours before treatment with the compounds to be tested. For these dose-response studies, the cells are incubated with each of the compounds to be tested or their corresponding solvent (controls) for 48 hours over a final concentration range of 1.10^−10 to 1.10^−4 M. All the compounds are dissolved just before use in dimethylsulphoxide (DMSO) at a concentration of 50 mM. Other dilutions of the medicaments are carried out in the culture medium. The final concentration of DMSO never exceeds 0.2% (v/v). As controls, the solutions of medicaments are replaced with the solvent which is diluted successively in the same way as the compounds to be tested.
(§3) After the incubation period, the labeling reagent MTT (3-[4,5-dimethylthiazol-2-yl]-2,5-diphenyltetrazolium bromide; Thiazol blue, Sigma M 565, Sigma, St Louis, Mo.) is added at a final concentration of 0.3 mg/ml to each well. The cells are incubated for 4 hours at 37° C. in a humidified atmosphere. This stage allows the mitochondrial dehydrogenase of the living cells to convert the yellow tetrazolium salt MTT into crimson formazan crystals. The supernatant part is eliminated and the formazan crystals formed are solubilized with DMSO. The resultant coloured solution is quantified by absorbance at 570 nm by using a multi-cuvette scanning spectrophotometer. The data concerning the proliferation is expressed as a percentage of living cells in the treated wells, divided by the living cells in the controls. Each point represents the average of three independent experiments, each experiment represents six determinations.
(§4) For the other cell lines (HCT15, LOVO, A549, A172, U373, U87), 1000 to 2000 cells are seeded in the well of a micro-well plate 24 hours before medicinal treatment. […]
(§5) The results are expressed as percentages of the calculated proliferation by the optical density (OD) of the cells treated with a medicament divided by the OD of the control cells (cells treated with DMSO). As represented in Table II, the compounds to be tested have inhibited the proliferation of cells in a dose-dependent manner.

[2] = system: A549 (human lung carcinoma); test: Test on cell proliferation (MTT test), A549; details: 72 hours
Experimental: as §1, §2, §3, §4, §5

U87 (human glioblastoma) = test: Test on cell proliferation (MTT test), U87; details: 72 hours
Experimental: as §1, §2, §3, §4, §5

[3] = system: U373 (human glioblastoma); test: Test on cell proliferation (MTT test), U373; details: 72 hours
Experimental: as §1, §2, §3, §4, §5

[4] = system: L1210 (mouse lymphocytic leukemia); test: Test on cell proliferation (MTT test), L1210; details: 48 hours
Experimental: as §1, §2, §3, §5

[5] = system: A172 (human glioblastoma); test: Test on cell proliferation (MTT test), A172; details: 72 hours
Experimental: as §1, §2, §3, §4, §5

## CCc1c2c(nc3ccccc13)-c1cc(C(O)(CC)CC(=O)O)c(CO)c(=O)n1C2 (stereo not drawn) [Example 10, 3-[12-ethyl-8-(hydroxymethyl)-9-oxo-9,11-dihydroindolizino[1,2-b]quinolin-7-yl]-3-hydroxypentanoic acid]
[1]; 0.1 nM
  PERCENTAGE OF CELL PROLIFERATION: 111.00%
[1]; 1 nM
  PERCENTAGE OF CELL PROLIFERATION: 87.00%
[1]; 10 nM
  PERCENTAGE OF CELL PROLIFERATION: 103.00%
[1]; 100 nM
  PERCENTAGE OF CELL PROLIFERATION: 63.00%
[1]; 1 000 nM
  PERCENTAGE OF CELL PROLIFERATION: 42.00%
[1]; 10 000 nM
  PERCENTAGE OF CELL PROLIFERATION: 17.00%
[1]; 100 000 nM
  PERCENTAGE OF CELL PROLIFERATION: 9.00%
[2]; 0.1 nM
  PERCENTAGE OF CELL PROLIFERATION: 71.00%
[2]; 1 nM
  PERCENTAGE OF CELL PROLIFERATION: 76.00%
[2]; 10 nM
  PERCENTAGE OF CELL PROLIFERATION: 71.00%
[2]; 100 nM
  PERCENTAGE OF CELL PROLIFERATION: 56.00%
[2]; 1 000 nM
  PERCENTAGE OF CELL PROLIFERATION: 36.00%
[2]; 10 000 nM
  PERCENTAGE OF CELL PROLIFERATION: 22.00%
[2]; 100 000 nM
  PERCENTAGE OF CELL PROLIFERATION: 7.00%
U87 (human glioblastoma); 0.1 nM
  PERCENTAGE OF CELL PROLIFERATION: 96.00%
U87 (human glioblastoma); 1 nM
  PERCENTAGE OF CELL PROLIFERATION: 79.00%
U87 (human glioblastoma); 10 nM
  PERCENTAGE OF CELL PROLIFERATION: 89.00%
U87 (human glioblastoma); 100 nM
  PERCENTAGE OF CELL PROLIFERATION: 17.00%
U87 (human glioblastoma); 1 000 nM
  PERCENTAGE OF CELL PROLIFERATION: 6.00%
U87 (human glioblastoma); 10 000 nM
  PERCENTAGE OF CELL PROLIFERATION: 5.00%
U87 (human glioblastoma); 100 000 nM
  PERCENTAGE OF CELL PROLIFERATION: 2.00%
[3]; 0.1 nM
  PERCENTAGE OF CELL PROLIFERATION: 96.00%
[3]; 1 nM
  PERCENTAGE OF CELL PROLIFERATION: 104.00%
[3]; 10 nM
  PERCENTAGE OF CELL PROLIFERATION: 87.00%
[3]; 100 nM
  PERCENTAGE OF CELL PROLIFERATION: 35.00%
[3]; 1 000 nM
  PERCENTAGE OF CELL PROLIFERATION: 20.00%
[3]; 10 000 nM
  PERCENTAGE OF CELL PROLIFERATION: 10.00%
[3]; 100 000 nM
  PERCENTAGE OF CELL PROLIFERATION: 2.00%
[4]; 0.1 nM
  PERCENTAGE OF CELL PROLIFERATION: 91.51%
[4]; 1 nM
  PERCENTAGE OF CELL PROLIFERATION: 97.94%
[4]; 10 nM
  PERCENTAGE OF CELL PROLIFERATION: 89.28%
[4]; 100 nM
  PERCENTAGE OF CELL PROLIFERATION: 67.32%
[4]; 1 000 nM
  PERCENTAGE OF CELL PROLIFERATION: 31.51%
[4]; 10 000 nM
  PERCENTAGE OF CELL PROLIFERATION: 19.78%
[4]; 100 000 nM
  PERCENTAGE OF CELL PROLIFERATION: 3.65%
[5]; 0.1 nM
  PERCENTAGE OF CELL PROLIFERATION: 93.00%
[5]; 1 nM
  PERCENTAGE OF CELL PROLIFERATION: 92.00%
[5]; 10 nM
  PERCENTAGE OF CELL PROLIFERATION: 91.00%
[5]; 100 nM
  PERCENTAGE OF CELL PROLIFERATION: 60.00%
[5]; 1 000 nM
  PERCENTAGE OF CELL PROLIFERATION: 39.00%
[5]; 10 000 nM
  PERCENTAGE OF CELL PROLIFERATION: 15.00%
[5]; 100 000 nM
  PERCENTAGE OF CELL PROLIFERATION: 3.00%

## CCC1(O)CC(=O)OCc2c1cc1n(c2=O)Cc2cc3cc4c(cc3nc2-1)OCCO4 (stereo not drawn) [Example 11, 8-ethyl-8-hydroxy-2,3,8,9,12,15-hexahydro-10H,13H-[1,4]dioxino [2,3-g]oxepino[3′,4′:6,7]indolizino[1,2-b]quinoline-10,13-dione]
[1]; 0.1 nM
  PERCENTAGE OF CELL PROLIFERATION: 71.00%
[1]; 1 nM
  PERCENTAGE OF CELL PROLIFERATION: 63.00%
[1]; 10 nM
  PERCENTAGE OF CELL PROLIFERATION: 45.00%
[1]; 100 nM
  PERCENTAGE OF CELL PROLIFERATION: 23.00%
[1]; 1 000 nM
  PERCENTAGE OF CELL PROLIFERATION: 12.00%
[1]; 10 000 nM
  PERCENTAGE OF CELL PROLIFERATION: 9.00%
[1]; 100 000 nM
  PERCENTAGE OF CELL PROLIFERATION: 9.00%
[2]; 0.1 nM
  PERCENTAGE OF CELL PROLIFERATION: 82.00%
[2]; 1 nM
  PERCENTAGE OF CELL PROLIFERATION: 44.00%
[2]; 10 nM
  PERCENTAGE OF CELL PROLIFERATION: 29.00%
[2]; 100 nM
  PERCENTAGE OF CELL PROLIFERATION: 26.00%
[2]; 1 000 nM
  PERCENTAGE OF CELL PROLIFERATION: 4.00%
[2]; 10 000 nM
  PERCENTAGE OF CELL PROLIFERATION: 3.00%
[2]; 100 000 nM
  PERCENTAGE OF CELL PROLIFERATION: 2.00%
U87 (human glioblastoma); 0.1 nM
  PERCENTAGE OF CELL PROLIFERATION: 40.00%
U87 (human glioblastoma); 1 nM
  PERCENTAGE OF CELL PROLIFERATION: 21.00%
U87 (human glioblastoma); 10 nM
  PERCENTAGE OF CELL PROLIFERATION: 12.00%
U87 (human glioblastoma); 100 nM
  PERCENTAGE OF CELL PROLIFERATION: 6.00%
U87 (human glioblastoma); 1 000 nM
  PERCENTAGE OF CELL PROLIFERATION: 1.00%
U87 (human glioblastoma); 10 000 nM
  PERCENTAGE OF CELL PROLIFERATION: 1.00%
U87 (human glioblastoma); 100 000 nM
  PERCENTAGE OF CELL PROLIFERATION: 1.00%
[3]; 0.1 nM
  PERCENTAGE OF CELL PROLIFERATION: 50.00%
[3]; 1 nM
  PERCENTAGE OF CELL PROLIFERATION: 30.00%
[3]; 10 nM
  PERCENTAGE OF CELL PROLIFERATION: 25.00%
[3]; 100 nM
  PERCENTAGE OF CELL PROLIFERATION: 8.00%
[3]; 1 000 nM
  PERCENTAGE OF CELL PROLIFERATION: 2.00%
[3]; 10 000 nM
  PERCENTAGE OF CELL PROLIFERATION: 1.00%
[3]; 100 000 nM
  PERCENTAGE OF CELL PROLIFERATION: 2.00%
[4]; 0.1 nM
  PERCENTAGE OF CELL PROLIFERATION: 91.99%
[4]; 1 nM
  PERCENTAGE OF CELL PROLIFERATION: 81.37%
[4]; 10 nM
  PERCENTAGE OF CELL PROLIFERATION: 23.16%
[4]; 100 nM
  PERCENTAGE OF CELL PROLIFERATION: 16.83%
[4]; 1 000 nM
  PERCENTAGE OF CELL PROLIFERATION: 5.59%
[4]; 10 000 nM
  PERCENTAGE OF CELL PROLIFERATION: 1.45%
[4]; 100 000 nM
  PERCENTAGE OF CELL PROLIFERATION: 1.04%
[5]; 0.1 nM
  PERCENTAGE OF CELL PROLIFERATION: 95.00%
[5]; 1 nM
  PERCENTAGE OF CELL PROLIFERATION: 53.00%
[5]; 10 nM
  PERCENTAGE OF CELL PROLIFERATION: 47.00%
[5]; 100 nM
  PERCENTAGE OF CELL PROLIFERATION: 39.00%
[5]; 1 000 nM
  PERCENTAGE OF CELL PROLIFERATION: 12.00%
[5]; 10 000 nM
  PERCENTAGE OF CELL PROLIFERATION: 3.00%
[5]; 100 000 nM
  PERCENTAGE OF CELL PROLIFERATION: 2.00%
